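A five-concentration, 48-hour dose response in 96-well plates underlies each endpoint, interpolated linearly between surrounding concentrations. TGI: total growth inhibition.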
Legend:
Assay in all cases: DTP human tumour cell line panel, 48 h
[1] = test system: A549 NSCLC
[2] = test system: DU-145 prostate
[3] = test system: HCC-2998 colon
[4] = test system: HL-60(TB) leukemia
[5] = test system: HOP-92 NSCLC
[6] = test system: HS 578T breast
[7] = test system: IGROV1 ovarian
[8] = test system: NCI/ADR-RES ovarian
[9] = test system: PC-3 prostate
[10] = test system: SN12C renal
[11] = test system: U251 CNS

SMILES	TGI [1]	TGI [2]	TGI [3]	TGI [4]	TGI [5]	TGI [6]	TGI [7]	TGI [8]	TGI [9]	TGI [10]	TGI [11]
O=[N+]([O-])c1ccc(-c2cc(O)c3nc4ccccc4n3c2)cc1	> 100 µM	> 100 µM	> 100 µM	> 100 µM	> 100 µM	> 100 µM	> 100 µM	> 100 µM	> 100 µM	> 100 µM	> 100 µM
O=[N+]([O-])c1ccc2nc(Cl)n[n+]([O-])c2c1	42.6 µM	31.7 µM	30.3 µM	1.36 µM	19.6 µM	> 100 µM	25.6 µM	60.1 µM	28.4 µM	37.4 µM	31.3 µM
O=C(NC(Cl)(C(F)(F)F)C(F)(F)F)c1ccc(F)cc1	> 100 µM	> 100 µM	> 100 µM	> 100 µM	> 100 µM	> 100 µM	> 100 µM	> 100 µM	> 100 µM	> 100 µM	> 100 µM
CN(C)CCCC1c2ccccc2Oc2ccc(C(F)(F)F)cc21 (stereo unspecified)	29.8 µM	31.1 µM	4.97 µM	28.1 µM	25.2 µM	31.8 µM	27.6 µM	28.3 µM	27.1 µM	28.2 µM	23.9 µM
CCOP(=O)(C=C=C1CCC2[C@@H]3CCc4cc(OC)ccc4C3CC[C@]12C)OCC (stereo partly specified)	18.4 µM	30 µM	25.2 µM	2.87 µM	22.5 µM	40.3 µM	23.6 µM	24.2 µM	15 µM	23 µM	25.5 µM
COc1cc(C(=O)/C=C/c2ccc(OCCSCCCCCCCCCCSCCOc3ccc(/C=C/C(=O)c4cc(OC)c(OC)c(OC)c4)cc3)cc2)cc(OC)c1OC	> 100 µM	> 100 µM	> 100 µM	> 100 µM	> 100 µM	> 100 µM	> 100 µM	> 100 µM	> 100 µM	> 100 µM	> 100 µM
CCCCCCCCCCCCCCCCCCNc1ccn(C2OC(COP(=O)(O)OCC3OC(n4cc(C)c(=O)[nH]c4=O)CC3F)C(O)C2O)c(=O)n1 (stereo unspecified)	46.7 µM	46.2 µM	13.5 µM	19.3 µM	37.5 µM	50.3 µM	17.9 µM	45.9 µM	5.38 µM	39.7 µM	15 µM
CCOP(=O)(OCC)C(C)(C)N(C)/C(F)=N/C(F)(F)F	> 100 µM	> 100 µM	> 100 µM	> 100 µM	> 100 µM	> 100 µM	> 100 µM	> 100 µM	> 100 µM	> 100 µM	> 100 µM
CC(C)C1OC(N)=C(C#N)C1(C#N)C#N (stereo unspecified)	> 100 µM	> 100 µM	58 µM	35.5 µM	> 100 µM	> 100 µM	> 100 µM	> 100 µM	> 100 µM	> 100 µM	> 100 µM
CC(=O)OCC(OC(C)=O)C(OC(C)=O)C(/C=N\Nc1nc2ccccc2c(=O)[nH]1)=N\Nc1nc2ccccc2c(=O)[nH]1 (stereo unspecified)	> 100 µM	> 100 µM	36.3 µM	> 100 µM	> 100 µM	> 100 µM	> 100 µM	> 100 µM	> 100 µM	> 100 µM	> 100 µM
Cc1ccc(S(=O)(=O)CN2C(=O)C(c3ccccc3)(c3ccccc3)C23OC(c2ccc(Cl)cc2)=CC3=O)cc1 (stereo unspecified)	> 10 µM	> 10 µM	> 10 µM	> 10 µM	> 10 µM	> 10 µM	> 10 µM	> 10 µM	> 10 µM	> 10 µM	> 10 µM
O=C(O)CSCc1cc2c(O)c(c1)Cc1cc(CSCC(=O)O)cc(c1O)Cc1cc(CSCC(=O)O)cc(c1O)Cc1cc(CSCC(=O)O)cc(c1O)C2	> 100 µM	> 100 µM	> 100 µM	> 100 µM	> 100 µM	> 100 µM	> 100 µM	> 100 µM	> 100 µM	> 100 µM	> 100 µM
COC(=O)c1c(C)cccc1C1CN=NC12Cc1ccccc1C2=O (stereo unspecified)	> 100 µM	> 100 µM	> 100 µM	> 100 µM	> 100 µM	> 100 µM	> 100 µM	> 100 µM	> 100 µM	> 100 µM	> 100 µM
N#CC(N)c1ccc(OCCCCCCCCCCOc2ccc(C(N)C#N)cc2)cc1 (stereo unspecified)	> 100 µM	> 100 µM	> 100 µM	> 100 µM	> 100 µM	> 100 µM	> 100 µM	> 100 µM	> 100 µM	> 100 µM	> 100 µM
CCCCc1ccc(Nc2nc(Cl)c3ncn(COCCOC(C)=O)c3n2)cc1	51.2 µM	29.7 µM	24.5 µM	45.6 µM	5.33 µM	52.7 µM	31.6 µM	35.7 µM	32.2 µM	39.8 µM	35 µM
O=C(c1cc2ccccc2[nH]1)N1C2CCC1CN(CCOC(c1ccc(F)cc1)c1ccc(F)cc1)CC2 (stereo unspecified)	> 100 µM	> 100 µM	> 100 µM	> 100 µM	> 100 µM	> 100 µM	> 100 µM	> 100 µM	> 100 µM	> 100 µM	> 100 µM

Reference: PubChem BioAssay (NCI)
